Data as given in the NIST ThermoML archive (doi:10.1016/j.fluid.2015.06.015).
± gives the expanded uncertainty stated by the source.

What was measured:
[1] = DTA; for Normal melting temperature: Crystal 1
[2] = Molar enthalpy of transition or fusion; details: Crystal 1; DSC

SMILES	Normal melting temperature [1] [°C]	Triple point temperature ([1]; Crystal 2) [K]	Molar enthalpy of transition or fusion [2] [kJ/mol]	Triple point temperature ([1]; Crystal 3) [K]
CCCCCCCCCCCCCCO [1-tetradecanol]	38.0 ± 0.53	310.06 ± 0.78	45.8 ± 1.9	
CCCCCCCCCCO [decan-1-ol]	6.96 ± 0.56	275.94 ± 0.68	29.7 ± 1.8	
CCCCCCCCCCCCO [dodecan-1-ol]	24.38 ± 0.39	296.95 ± 0.39	38.5 ± 1.4	291.04 ± 0.7
CCCCCCCCCC(=O)O [decanoic acid]	32.33 ± 0.41		27.2 ± 0.91	
CCCCCCCC/C=C\CCCCCCCC(=O)OCC(COC(=O)CCCCCCC/C=C\CCCCCCCC)OC(=O)CCCCCCC/C=C\CCCCCCCC [1,2,3-tri(cis-9-octadecenoyl)glycerol]	5.42 ± 0.39	258.99 ± 0.66	115 ± 2.5	
CCCCCCCCCCCC(=O)O [dodecanoic acid]	45.33 ± 1	317.91 ± 0.46	34.6 ± 2.1	
CCCCCCCCCCCCCC(=O)O [tetradecanoic acid]	55.78 ± 0.5	327.95 ± 0.7	44 ± 0.93	
